# Key:
# Conditions in all cases: CHO cell membrane fraction; 2.5 nM 3H-PGE2; pH 6.0; room temperature, 1 hour; more polar stereoisomer
# mouse EP1 = target: T1, mouse EP1 (Mus musculus, UniProt P35375); assay: Binding assay using expression cell of prostanoids receptor subtype (competition of specific 3H-PGE2 binding), EP1
# T1 construct: expressed in transfected cells; host or cells: CHO cells (membrane fraction)
# T1 sequence (P35375 1-405): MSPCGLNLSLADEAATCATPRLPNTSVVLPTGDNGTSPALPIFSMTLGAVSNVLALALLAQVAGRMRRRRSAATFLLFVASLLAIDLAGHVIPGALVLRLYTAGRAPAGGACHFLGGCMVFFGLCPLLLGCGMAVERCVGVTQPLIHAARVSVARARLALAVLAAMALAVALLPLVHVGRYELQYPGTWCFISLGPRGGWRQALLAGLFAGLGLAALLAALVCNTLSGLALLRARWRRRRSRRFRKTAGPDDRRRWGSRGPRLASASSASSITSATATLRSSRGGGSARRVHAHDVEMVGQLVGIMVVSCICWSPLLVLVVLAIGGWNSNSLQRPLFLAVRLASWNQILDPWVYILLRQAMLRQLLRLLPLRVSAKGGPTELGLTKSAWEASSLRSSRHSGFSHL
# Protocol: (§1) (i) Binding Assay Using Expression Cell of Prostanoids Receptor Subtype
# (§2) The preparation of membrane fraction was carried out according to the method of Sugimoto et. al., [J. Biol. Chem., 267, 6463-6466 (1992)], using expression CHO cell of the prostanoids receptor subtype (mouse EP1, EP2, EP3α, EP4).
# (§3) The standard assay mixture containing membrane fraction (0.5 mg/ml) and [^3 H]-PGE2 ([…]) in a final volume of 200 μl was incubated at room temperature for 1 hour. The reaction was terminated by addition of ice-cooled buffer (3 ml). The mixture was filtered through a GF/B glass filter under reduced pressure. The radioactivity associated with the filter was measured by liquid scintillation counter.
# (§4) Kd and Bmax values were determined from Scatchard plots [Ann. N. Y. Acad. Sci., 51, 660 (1949)]. Non-specific binding was calculated as the binding in the presence of an excess (2.5 μM) of unlabeled PGE2. In the experiment for competition of specific ^3 H-PGE2 binding by the compounds of the present invention, 2.5 nM of ^3 H-PGE2 and various concentrations of compounds of the present invention were added. The following buffer was used in all reactions.
# (§5) Buffer: 10 mM potassium phosphate (pH 6.0), 1 mM EDTA, 10 mM MgCl2, 0.1 M NaCl.
# (§6) All the values shown are those obtained using the more polar stereoisomer of the exemplified compounds. The dissociation constant; i.e. Ki (μM) of each compound was calculated by the following equation.
# mouse EP2 = target: T2, mouse EP2 (Mus musculus, UniProt Q62053); assay: Binding assay using expression cell of prostanoids receptor subtype (competition of specific 3H-PGE2 binding), EP2
# T2 construct: expressed in transfected cells; host or cells: CHO cells (membrane fraction)
# Protocol: as §1, §2, §3, §4, §5, §6
# mouse EP3α = target: T3, mouse EP3α (Mus musculus, UniProt P30557); assay: Binding assay using expression cell of prostanoids receptor subtype (competition of specific 3H-PGE2 binding), EP3α
# T3 construct: expressed in transfected cells; host or cells: CHO cells (membrane fraction)
# T3 sequence (P30557 1-365): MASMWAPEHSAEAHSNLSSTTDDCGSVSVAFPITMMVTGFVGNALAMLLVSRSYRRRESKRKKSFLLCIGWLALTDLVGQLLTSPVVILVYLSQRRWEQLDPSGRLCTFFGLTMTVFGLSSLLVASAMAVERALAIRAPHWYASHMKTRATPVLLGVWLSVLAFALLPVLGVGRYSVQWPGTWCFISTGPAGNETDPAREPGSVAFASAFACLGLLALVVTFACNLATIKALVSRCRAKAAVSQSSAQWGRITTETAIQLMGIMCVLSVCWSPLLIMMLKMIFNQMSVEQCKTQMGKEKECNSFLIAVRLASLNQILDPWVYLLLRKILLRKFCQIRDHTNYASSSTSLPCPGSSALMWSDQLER
# Protocol: as §1, §2, §3, §4, §5, §6
# mouse EP4 = target: T4, mouse EP4 (Mus musculus, UniProt P32240); assay: Binding assay using expression cell of prostanoids receptor subtype (competition of specific 3H-PGE2 binding), EP4
# T4 construct: expressed in transfected cells; host or cells: CHO cells (membrane fraction)
# Protocol: as §1, §2, §3, §4, §5, §6
# T4 sequence (P32240 whole entry): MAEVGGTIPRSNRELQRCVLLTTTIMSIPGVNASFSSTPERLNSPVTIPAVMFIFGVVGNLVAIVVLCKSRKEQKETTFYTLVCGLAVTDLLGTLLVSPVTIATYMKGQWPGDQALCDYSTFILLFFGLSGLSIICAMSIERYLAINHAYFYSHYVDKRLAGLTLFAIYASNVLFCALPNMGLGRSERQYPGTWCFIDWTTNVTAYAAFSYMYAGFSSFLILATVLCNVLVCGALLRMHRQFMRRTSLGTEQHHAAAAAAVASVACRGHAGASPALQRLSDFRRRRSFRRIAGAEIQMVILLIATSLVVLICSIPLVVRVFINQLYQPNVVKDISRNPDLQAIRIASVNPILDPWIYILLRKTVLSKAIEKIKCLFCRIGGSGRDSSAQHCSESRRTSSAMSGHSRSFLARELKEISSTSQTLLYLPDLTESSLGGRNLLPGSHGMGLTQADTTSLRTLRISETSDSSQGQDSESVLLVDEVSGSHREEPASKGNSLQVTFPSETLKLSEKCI
# T2 sequence (Q62053 whole entry): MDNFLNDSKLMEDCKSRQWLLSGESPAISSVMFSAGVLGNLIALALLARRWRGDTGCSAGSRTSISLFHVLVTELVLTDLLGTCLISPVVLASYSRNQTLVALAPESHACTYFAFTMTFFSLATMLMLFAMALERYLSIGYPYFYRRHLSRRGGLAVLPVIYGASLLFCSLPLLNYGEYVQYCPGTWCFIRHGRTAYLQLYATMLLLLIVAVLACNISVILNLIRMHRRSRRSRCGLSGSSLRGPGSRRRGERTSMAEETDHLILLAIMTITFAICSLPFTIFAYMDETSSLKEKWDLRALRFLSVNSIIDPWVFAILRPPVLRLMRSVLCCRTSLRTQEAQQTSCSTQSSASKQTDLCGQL
Compound,Ki (mouse EP1) [nM],Ki (mouse EP2) [nM],Ki (mouse EP3α) [nM],Ki (mouse EP4) [nM]
"C=CCC1(C(O)C/C=C/[C@@H]2C(SCc3ccc(C(=O)O)cc3)C(=O)C[C@H]2O)CCC1 (stereo partly drawn) [Example 5(b), (11α,13E)-9-Oxo-11,16-dihydroxy-17,17-propano-7-thia-1,6-(p-phenylene)-2,3,4,5-tetranorprost-13,19-dienoic Acid]",> 10000,19,> 10000,1500
"C=CCC1(C(O)C/C=C/[C@@H]2[C@@H](CCc3ccc(C(=O)O)cc3)[C@H](Cl)C[C@H]2O)CCC1 (stereo partly drawn) [9(c), (9β,11α,13E) -9-Chloro-11,16-dihydroxy-17,17-propano-1,6-(p-phenylene)-2,3,4,5-tetranorprost-13,19-dienoic acid]",> 10000,5.1,> 10000,> 10000
"C=CCC1(C(O)C/C=C/[C@H]2[C@H](O)CC(=O)[C@@H]2CCc2ccc(C(=O)O)cc2)CCC1 (single isomer, unassigned) [Example 2(a), (11α,13E)-9-Oxo-11,16-dihydroxy-17,17-propano-1,6-(p-phenylene)-2,3,4,5-tetranorprost-13,19-dienoic Acid]",> 10000,9.7,> 10000,> 10000
"O=C(O)c1ccc(CC[C@H]2C(=O)C[C@@H](O)[C@@H]2/C=C/CC(O)C2(CC3CC3)CCC2)cc1 (single isomer, unassigned) [Example 2(b), (11α,13E)-9-Oxo-11,16-dihydroxy-17,17-propano-19,20-methano-1,6-(p-phenylene)-2,3,4,5-tetranorprost-13-enoic Acid]",> 10000,6.1,> 10000,> 10000
"O=C(O)c1ccc(CSC2C(=O)C[C@@H](O)[C@@H]2/C=C/CC(O)C2(CC3CC3)CCC2)cc1 (stereo partly drawn) [Example 5(d), (11α,13E) -9-Oxo-11,16-dihydroxy-17,17-propano-19,20-methano-7-thia-1,6-(p-phenylene)-2,3,4,5-tetranorprost-13-enoic Acid]",> 10000,2,> 10000,310

# From patent US6262293A, “ω-Cycloalkly-prostaglandin e2 derivatives” (Ono Pharmaceutical Co., Ltd., priority 1997, dated 2001)
